How the values were obtained:
Format in all cases: in vivo
[1] = tested on: transgenic tobacco plants expressing tolerant HPPD enzymes; experiment: Tolerance of tobacco plants expressing tolerant HPPD enzymes (all transgenes); details: for tolerance of the transgenic tobacco plants (symptoms due to application of the herbicide): T1 plants sprayed, evaluated one week after application; for sensitivity of transgenic tobacco plants compared to wild type (wt) plants: all tested independent lines, agronomically relevant dose
Text: (§1) Genes coding for the selected HPPD were obtained from a member of the group of organisms consisting of Avena sativa, Pseudomonas fluorescens mutant G336W, Blepharisma japonicum and Kordia algicida and cloned into the binary vector pBin19 allowing the integration of DNA into the tobacco genome, under the control of the CaMV35S promoter. For the cloning procedures, see A2 above for Avena sativa, see B2 above for Pseudomonas fluorescens, mutant G336W, see PCT/EP2010/070567 (published as WO 2011/076882, Example 5; for Blepharisma japonicum (FMP37) and see PCT/EP2010/070575, Example 5 for Kordia algicida (FMP27). Between the sequence corresponding to the promoter and the sequence coding for the HPPD a DNA sequence coding for a transit peptide to the chloroplast was inserted, in order to add at the N-terminal extremity of the protein a target signal to allow the localization of the HPPD protein into the plant chloroplast.
(§2) Seeds harvested from TO transformants will be put on standard soil for germination. Three weeks later plantlets (T1) will be transferred to single pots and grown under standard cultivation conditions (PCT/EP2010/070575, published as WO 2011/076889). Two weeks later, plants were sprayed with several N-(tetrazol-4-yl)- or N-(triazol-3-yl)arylcarboxamides as defined above.
(§3) Tables F1 to F5: Evaluation of the Symptoms Observed Due to the Application of the Herbicides on Transgenic Tobacco Plants, Expressing the Mutant Pseudomonas fluorescens HPPD G336W, the Avena HPPD (AvHPPD), the HPPD from Kordia algicida FMP27 or the HPPD from Blepharisma japonicum (FMP37), Compared to Non-Tranformed Tobacco Plants (“Wt”).
(§4) The herbicides (with “g Al/ha” meaning “g active ingredient/ha”) were applied on 8 to 10 plants originated from 1 to 3 independent transgenic events per transgene.
(§5) The symptoms were evaluated and classified as following: • 3=Very strong damage • 2=Strong damage • 1=Light and transient damage • 0=No damage

[2] = tested on: non-transformed tobacco plants (Wt); experiment: Symptoms due to herbicide application on tobacco plants (damage classes 0-3); details: one week after application
Text: as §2, §3, §4, §5

[3] = tested on: cotton plants expressing FMP 27 and FMP 37; experiment: Tolerance to HPPD inhibitors of cotton plants expressing tolerant HPPD enzymes; details: T1 cotton plants; one week after application
Text: (§6) Genes coding for the selected HPPD were obtained from a member of the group of organisms consisting of Blepharisma japonicum and Kordia algicida and cloned into an appropriate binary vector allowing the integration of DNA into the cotton genome, under the control of the CaMV35S promoter. For the respective cloning procedures, see WO2011076882 (PCT/EP2010/070567), Example 11; for Blepharisma japonicum (FMP37) and WO2011076889 (PCT/EP2010/070575), Example 11 for Kordia algicida (FMP27).
Between the sequence corresponding to the promoter and the sequence coding for the HPPD a DNA sequence coding for a transit peptide to the chloroplast was inserted, in order to add at the N-terminal extremity of the protein a target signal to allow the localization of the HPPD protein into the plant chloroplast. Cotton transformation was achieved as described in Example 12 of WO2011076882 (PCT/EP2010/070567) for Blepharisma japonicum (FMP37) and WO2011076889 (PCT/EP2010/070575) for Kordia algicida (FMP27). Seeds from T0 events showing tolerance to tembotrione were harvested.
T1 Cotton seeds were transferred to single pots and grown under standard cultivation conditions, see WO2011076882 (PCT/EP2010/070567) for Blepharisma japonicum (FMP37) and WO2011076889 (PCT/EP2010/070575) for Kordia algicida (FMP27).
At least 4 weeks later, plants will be sprayed with several N-(tetrazol-4-yl)- or N-(triazol-3-yl)arylcarboxamides as defined above.

[4] = tested on: transgenic tobacco plants expressing HPPD from Kordia algicida FMP27; experiment: Symptoms due to herbicide application on transgenic tobacco plants (damage classes 0-3); details: one week after application
Text: as §1, §2, §3, §4, §5

[5] = tested on: transgenic tobacco plants expressing mutant Pseudomonas fluorescens HPPD G336W (PfHPPD-G336W); experiment: as above; details: PfHPPD-G336W line 646, one week after application
Text: as §1, §2, §3, §4, §5

[6] = tested on: transgenic tobacco plants expressing Avena HPPD (AvHPPD); experiment: as above; details: AvHPPD line 659, one week after application
Text: as §1, §2, §3, §4, §5

[7] = tested on: transgenic tobacco plants expressing HPPD from Blepharisma japonicum (FMP37); experiment: as above; details: one week after application
Text: as §1, §2, §3, §4, §5

[8] = tested on: soybean plants expressing Pseudomonas fluorescens G336W mutant, FMP 27 and FMP 37; experiment: Tolerance to HPPD inhibitors of soybean plants expressing tolerant HPPD enzymes; details: T1 soybean plants; one week after application
Text: as §6, with “the soybean” for “the cotton”, “Example 9;” for “Example 11;”, “Example 9” for “Example 11”
Between the sequence corresponding to the promoter and the sequence coding for the HPPD a DNA sequence coding for a transit peptide to the chloroplast was inserted, in order to add at the N-terminal extremity of the protein a target signal to allow the localization of the HPPD protein into the plant chloroplast. By using the vectors “pFCO112” (Blepharisma japonicum, WO2011076882), pFCO116 (Korida algicida, WO2011076889), and pFCO117” (see Example B2, above), soybean transformation was achieved as described in Example 10 of WO2011076882 (PCT/EP2010/070567) for Blepharisma japonicum (FMP37) and WO2011076889 (PCT/EP2010/070575) for Kordia algicida (FMP27). Seeds from TO events showing tolerance to tembotrione were harvested.
T1 Soybean seeds were transferred to single pots and grown under standard cultivation conditions, see WO2011076882.
Two weeks later, plants will be sprayed with several N-(tetrazol-4-yl)- or N-(triazol-3-yl)arylcarboxamides as defined above.

[9] = 50 g AI/ha, WP20 + oilseed rape methyl ester + ammonium sulfate

With `Cn1nnnc1NC(=O)c1ccc(C(F)(F)F)cc1S(C)(=O)=O` [Compound 4-25] the “tolerance of the transgenic tobacco plants (symptoms due to application of the herbicide)” value [1] was “good tolerance”, the “sensitivity of transgenic tobacco plants compared to wild type (wt) plants” value [1] was “less sensitive” and the “number of plants with Damage 0 (No damage)” value (“number … (No damage)” below) ([2]; 50 g Al/ha) was 0. For the same molecule, the “number of plants with Damage 1 (Light and transient damage)” value (shortened to “number … (Light and transient damage)”) ([2]; 50 g Al/ha) was 0, the “number of plants with Damage 2 (Strong damage)” value (from here on “number … (Strong damage)”) ([2]; 50 g Al/ha) was 0 and the “number of plants with Damage 3 (Very strong damage)” value (“number … (Very strong damage)” below) ([2]; 50 g Al/ha) was 10. The “tolerance of transgenic plants compared to the wild-type cotton plants” value [3] was “superior tolerance”, the “number … (No damage)” value ([4]; FMP27 line 733, 50 g Al/ha) was 9 and the “number … (Light and transient damage)” value ([4]; FMP27 line 733, 50 g Al/ha) was 1. The “number … (Strong damage)” value ([4]; FMP27 line 733, 50 g Al/ha) was 0, the “number … (Very strong damage)” value ([4]; FMP27 line 733, 50 g Al/ha) was 0 and the “number … (No damage)” value ([4]; FMP27 line 734, 50 g Al/ha) was 6. The “number … (Light and transient damage)” value ([4]; FMP27 line 734, 50 g Al/ha) was 3, the “number … (Strong damage)” value ([4]; FMP27 line 734, 50 g Al/ha) was 0 and the “number … (Very strong damage)” value ([4]; FMP27 line 734, 50 g Al/ha) was 1. For the same molecule, the “number … (No damage)” value ([4]; FMP27 line 735, 50 g Al/ha) was 5, the “number … (Light and transient damage)” value ([4]; FMP27 line 735, 50 g Al/ha) was 3 and the “number … (Strong damage)” value ([4]; FMP27 line 735, 50 g Al/ha) was 0. For the same molecule, the “number … (Very strong damage)” value ([4]; FMP27 line 735, 50 g Al/ha) was 0, the “number … (No damage)” value ([5]; 50 g Al/ha) was 10 and the “number … (Light and transient damage)” value ([5]; 50 g Al/ha) was 0. For the same molecule, the “number … (Strong damage)” value ([5]; 50 g Al/ha) was 0, the “number … (Very strong damage)” value ([5]; 50 g Al/ha) was 0 and the “number … (No damage)” value ([6]; 50 g Al/ha) was 6. For the same molecule, the “number … (Light and transient damage)” value ([6]; 50 g Al/ha) was 1, the “number … (Strong damage)” value ([6]; 50 g Al/ha) was 0 and the “number … (Very strong damage)” value ([6]; 50 g Al/ha) was 3. The “number … (No damage)” value ([7]; FMP37 line 749, 50 g Al/ha) was 8, the “number … (Light and transient damage)” value ([7]; FMP37 line 749, 50 g Al/ha) was 0 and the “number … (Strong damage)” value ([7]; FMP37 line 749, 50 g Al/ha) was 0. The “number … (Very strong damage)” value ([7]; FMP37 line 749, 50 g Al/ha) was 2, the “number … (No damage)” value ([7]; FMP37 line 754, 50 g Al/ha) was 3 and the “number … (Light and transient damage)” value ([7]; FMP37 line 754, 50 g Al/ha) was 5. The “number … (Strong damage)” value ([7]; FMP37 line 754, 50 g Al/ha) was 1, the “number … (Very strong damage)” value ([7]; FMP37 line 754, 50 g Al/ha) was 1 and the “number … (No damage)” value ([7]; FMP37 line 795, 50 g Al/ha) was 7. For the same molecule, the “number … (Light and transient damage)” value ([7]; FMP37 line 795, 50 g Al/ha) was 0, the “number … (Strong damage)” value ([7]; FMP37 line 795, 50 g Al/ha) was 1 and the “number … (Very strong damage)” value ([7]; FMP37 line 795, 50 g Al/ha) was 2. The “tolerance of transgenic plants compared to the wild-type soybean plants” value [8] was “superior tolerance”.
In the case of `COCc1c(S(C)(=O)=O)ccc(C(=O)Nc2nnnn2C)c1Cl` [Compound 4-253], the “tolerance of the transgenic tobacco plants (symptoms due to application of the herbicide)” value [1] is reported as “good tolerance”, the “sensitivity of transgenic tobacco plants compared to wild type (wt) plants” value [1] is reported as “less sensitive” and the “number … (No damage)” value [2, 9] is reported as 0. For the same molecule, the “number … (Light and transient damage)” value [2, 9] was 0, the “number … (Strong damage)” value [2, 9] was 0 and the “number … (Very strong damage)” value [2, 9] was 10. For the same molecule, the “tolerance of transgenic plants compared to the wild-type cotton plants” value [3] was “superior tolerance”, the “number … (No damage)” value ([4]; 50 g AI/ha, FMP27 line 733) was 4 and the “number … (Light and transient damage)” value ([4]; 50 g AI/ha, FMP27 line 733) was 4. For the same molecule, the “number … (Strong damage)” value ([4]; 50 g AI/ha, FMP27 line 733) was 2, the “number … (Very strong damage)” value ([4]; 50 g AI/ha, FMP27 line 733) was 0 and the “number … (No damage)” value ([4]; 50 g AI/ha, FMP27 line 734) was 6. For the same molecule, the “number … (Light and transient damage)” value ([4]; 50 g AI/ha, FMP27 line 734) was 1, the “number … (Strong damage)” value ([4]; 50 g AI/ha, FMP27 line 734) was 2 and the “number … (Very strong damage)” value ([4]; 50 g AI/ha, FMP27 line 734) was 1. For the same molecule, the “number … (No damage)” value ([4]; 50 g AI/ha, FMP27 line 735) was 2, the “number … (Light and transient damage)” value ([4]; 50 g AI/ha, FMP27 line 735) was 5 and the “number … (Strong damage)” value ([4]; 50 g AI/ha, FMP27 line 735) was 0. For the same molecule, the “number … (Very strong damage)” value ([4]; 50 g AI/ha, FMP27 line 735) was 3, the “number … (No damage)” value ([5]; 50 g AI/ha) was 9 and the “number … (Light and transient damage)” value ([5]; 50 g AI/ha) was 0. The “number … (Strong damage)” value ([5]; 50 g AI/ha) was 0, the “number … (Very strong damage)” value ([5]; 50 g AI/ha) was 1 and the “number … (No damage)” value ([6]; 50 g AI/ha) was 3. The “number … (Light and transient damage)” value ([6]; 50 g AI/ha) was 0, the “number … (Strong damage)” value ([6]; 50 g AI/ha) was 0 and the “number … (Very strong damage)” value ([6]; 50 g AI/ha) was 7. The “number … (No damage)” value ([7]; 50 g AI/ha, FMP37 line 749) was 7, the “number … (Light and transient damage)” value ([7]; 50 g AI/ha, FMP37 line 749) was 2 and the “number … (Strong damage)” value ([7]; 50 g AI/ha, FMP37 line 749) was 0. The “number … (Very strong damage)” value ([7]; 50 g AI/ha, FMP37 line 749) was 1, the “number … (No damage)” value ([7]; 50 g AI/ha, FMP37 line 754) was 6 and the “number … (Light and transient damage)” value ([7]; 50 g AI/ha, FMP37 line 754) was 2. For the same molecule, the “number … (Strong damage)” value ([7]; 50 g AI/ha, FMP37 line 754) was 1, the “number … (Very strong damage)” value ([7]; 50 g AI/ha, FMP37 line 754) was 1 and the “number … (No damage)” value ([7]; 50 g AI/ha, FMP37 line 795) was 3. For the same molecule, the “number … (Light and transient damage)” value ([7]; 50 g AI/ha, FMP37 line 795) was 4, the “number … (Strong damage)” value ([7]; 50 g AI/ha, FMP37 line 795) was 0 and the “number … (Very strong damage)” value ([7]; 50 g AI/ha, FMP37 line 795) was 3. For the same molecule, the “tolerance of transgenic plants compared to the wild-type soybean plants” value [8] was “superior tolerance”.

— US9078446B2, “Use of N-(tetrazol-4-yl)- or N-(triazol-3-yl)arylcarboxamides or their salts for controlling unwanted plants in areas of transgenic crop plants being tolerant to HPPD inhibitor herbicides” (BAYER INTELLECTUAL PROPERTY GMBH, priority 2011, dated 2015)
